For data set [1], the system named is primary rat microglia. Description: Cell toxicity (dead cells, size <150 μm2) in LPS assay. Particulars: primary microglia HTS.
Data set [2] has as its system fibrin-induced microglia activation. Description: Image-based assay of fibrin-induced microglia activation (HTS and dose response). Type of data set: cell-based, rat. Particulars: primary microglia HTS; for inhibition at 10 µM: Rattus norvegicus, Microglia, read-out: Fibrin % inhibition.
Data set [3] has as its system fibrin- and LPS-induced microglia activation. Description: cells. The data set is classed as cell-based, rat.
The subject of data set [4] is LPS-induced microglia activation. Description: Image-based assay of LPS-induced microglia activation (HTS and dose response). Type of data set: cell-based, rat. The note with it: primary microglia HTS; for inhibition at 10 µM: Rattus norvegicus, Microglia, read-out: LPS % inhibition.
The test system of data set [5] is primary rat microglia. The data set is described as follows: Cell toxicity (dead cells, size <150 μm2) in coated fibrin (cFib) assay.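 Also: share of dead cells sized under 150 µm2 at 10 µM in fibrin-stimulated microglia HTS.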 The note with it: primary microglia HTS.
Where [6] appears, read: 10 μM, LPS assay, cell size <150 μm^2 as marker of toxicity.
The mark [7] stands for this setting: 10 μM, fibrin-stimulated, cell size >800 μm^2 as marker of activation.
The mark [8] stands for this setting: HTS of 1907 compounds, quadrant by fibrin and LPS inhibition.
Setting [9] is: 10 μM, LPS-stimulated, cell size >800 μm^2 as marker of activation.
Setting [10] is: 10 μM, fibrin assay, cell size <150 μm^2 as marker of toxicity.

Counter-ions that a name gives are not always drawn. Like-named read-outs stand apart in the source and are kept apart here.

On to `O=C1/C(=C/c2cccs2)CCC/C1=C\c1cccs1` [Tenylidone], for which the “LPS % cell toxicity” value with primary rat microglia [1] (setting [6]) was 0%. Further, the figures for the inhibition at 10 µM in data set [2] (setting [7]) and in data set [4] (setting [9]) were -9% and 15%, respectively. In addition, in data set [3] (setting [8]), the “Quadrant (FIG. 5b)” value is “Q4”. The “Fibrin % cell toxicity” value with primary rat microglia [5] (setting [10]) worked out at 1%.
Take `CN(C/C=C/C#CC(C)(C)C)Cc1cccc2ccccc12` [Terbinafine, Terbinafine Hydrochloride]: in the data set with primary rat microglia [1] (setting [6]), the “LPS % cell toxicity” value worked out at 0%. In addition, the Fibrin % inhibition in data set [2] (setting [7]) is listed as −23%. Besides, in data set [3] (setting [8]), the “Quadrant (FIG. 5b)” value is listed as “Q4”. The LPS % inhibition in data set [4] (setting [9]) is recorded as 6%. Moreover, the “Fibrin % cell toxicity” value with primary rat microglia [5] (setting [10]) is 0%.
Consider `CC(C)(C)NCC(O)c1cc(O)cc(O)c1` (stereo not shown) [Terbutaline], for which the “LPS % cell toxicity” value in the data set on primary rat microglia [1] (setting [6]) stood at 0%. Moreover, the results for the inhibition at 10 µM in data set [2] (setting [7]) and in data set [4] (setting [9]) were 39% and 28%, respectively. The “Quadrant (FIG. 5b)” value in data set [3] (setting [8]) is given as “Q4”. The “Fibrin % cell toxicity” value with primary rat microglia [5] (setting [10]) is 1%.
For `CC1(O)CCC(C(C)(C)O)CC1.O` (stereo not shown) [Terpene Hydrate], in the data set on primary rat microglia [1] (setting [6]), the “LPS % cell toxicity” value was determined as 0%. In addition, the Fibrin % inhibition in data set [2] (setting [7]) is recorded as −6%. Moreover, in data set [3] (setting [8]), the “Quadrant (FIG. 5b)” value is “Q4”. In data set [4] (setting [9]), the LPS % inhibition came out at 8%. The “Fibrin % cell toxicity” value with primary rat microglia [5] (setting [10]) was determined as 1%.
On to `CCCCNc1ccc(C(=O)OCCN(C)C)cc1` [Tetracaine], for which, in the data set with primary rat microglia [1] (setting [6]), the “LPS % cell toxicity” value is 1%. Also, the inhibition at 10 µM was found to be 4% in data set [2] (setting [7]) and 9% in data set [4] (setting [9]). The “Quadrant (FIG. 5b)” value in data set [3] (setting [8]) is listed as “Q4”. Moreover, the “Fibrin % cell toxicity” value in the data set with primary rat microglia [5] (setting [10]) was found to be 1%.
`O=C1C(O)=C(O)C(=O)C(O)=C1O` [Tetraquinone]: in the data set with primary rat microglia [1] (setting [6]), the “LPS % cell toxicity” value was 0%. Besides, in data set [2] (setting [7]), the Fibrin % inhibition is −10%. Further, the “Quadrant (FIG. 5b)” value in data set [3] (setting [8]) is recorded as “Q4”. In addition, the LPS % inhibition in data set [4] (setting [9]) is given as 15%. The “Fibrin % cell toxicity” value with primary rat microglia [5] (setting [10]) is on record as 0%.
Consider `c1ccc2c(c1)CCCC2C1=NCCN1` (stereo not shown) [Tetryzoline], for which, in the data set with primary rat microglia [1] (setting [6]), the “LPS % cell toxicity” value is listed as 0%. Also, the inhibition at 10 µM is -29% in data set [2] (setting [7]) and 16% in data set [4] (setting [9]). The “Quadrant (FIG. 5b)” value in data set [3] (setting [8]) is reported as “Q4”. The “Fibrin % cell toxicity” value in the data set with primary rat microglia [5] (setting [10]) was 0%.
With `Cn1cnc2c1c(=O)[nH]c(=O)n2C` [Theobromine], the “LPS % cell toxicity” value in the data set with primary rat microglia [1] (setting [6]) amounted to 1%. For the same compound, the inhibition at 10 µM came to 11% in data set [2] (setting [7]) and 18% in data set [4] (setting [9]). Also, in data set [3] (setting [8]), the “Quadrant (FIG. 5b)” value was “Q4”. For the same compound, the “Fibrin % cell toxicity” value in the data set on primary rat microglia [5] (setting [10]) is 0%.
For `CS(=O)(=O)c1ccc([C@@H](O)[C@@H](CO)NC(=O)C(Cl)Cl)cc1` [Thiamphenicol] the same measures were 0%, -19%, 12%, “Q4” and 0%.
Regarding `C=CCC1(C(C)CCC)C(=O)N=C(S)NC1=O` (stereo not shown) [Thiamylal], the “LPS % cell toxicity” value in the data set with primary rat microglia [1] (setting [6]) worked out at 0%. In addition, the results for the inhibition at 10 µM in data set [2] (setting [7]) and in data set [4] (setting [9]) were -1% and 26%, respectively. The “Quadrant (FIG. 5b)” value in data set [3] (setting [8]) is “Q4”. For the same compound, the “Fibrin % cell toxicity” value in the data set with primary rat microglia [5] (setting [10]) came out at 0%.
Turning to `O=c1oc2cc(O)ccc2s1` [Thioxolone, Tioxolone], the “LPS % cell toxicity” value in the data set on primary rat microglia [1] (setting [6]) worked out at 0%. In addition, the Fibrin % inhibition in data set [2] (setting [7]) is −18%. In addition, the “Quadrant (FIG. 5b)” value in data set [3] (setting [8]) is given as “Q4”. In addition, the LPS % inhibition in data set [4] (setting [9]) is recorded as 12%. Moreover, the “Fibrin % cell toxicity” value in the data set on primary rat microglia [5] (setting [10]) was 0%.
In the case of `CCCCCCCCCCCCCCCC[N+](C)(C)CCN(Cc1ccc(OC)cc1)c1ncccn1` [Thonzonium Bromide], the “LPS % cell toxicity” value with primary rat microglia [1] (setting [6]) is given as 1%. Further, the inhibition at 10 µM in data set [2] (setting [7]) is -1%; in data set [4] (setting [9]), 19%. For the same compound, the “Quadrant (FIG. 5b)” value in data set [3] (setting [8]) was “Q4”. The “Fibrin % cell toxicity” value in the data set with primary rat microglia [5] (setting [10]) is 0%.
On to `N[C@@H](Cc1cc(I)c(Oc2cc(I)c(O)c(I)c2)c(I)c1)C(=O)O` [Thyroxine, Levothyroxine], for which the “LPS % cell toxicity” value with primary rat microglia [1] (setting [6]) came to 1%. In data set [2] (setting [7]), the Fibrin % inhibition is on record as 5%. In addition, the “Quadrant (FIG. 5b)” value in data set [3] (setting [8]) is on record as “Q4”. Also, the LPS % inhibition in data set [4] (setting [9]) was determined as 25%. In addition, the “Fibrin % cell toxicity” value in the data set with primary rat microglia [5] (setting [10]) is 1%.
In the case of `CCN(CC)CCNC(=O)c1cc(S(C)(=O)=O)ccc1OC` [Tiapride], the “LPS % cell toxicity” value in the data set on primary rat microglia [1] (setting [6]) turned out to be 0%. The inhibition at 10 µM in data set [2] (setting [7]) was -18%; in data set [4] (setting [9]) it was 6%. In data set [3] (setting [8]), the “Quadrant (FIG. 5b)” value is reported as “Q4”. The “Fibrin % cell toxicity” value with primary rat microglia [5] (setting [10]) was determined as 0%.
With `C#C[C@]1(O)CC[C@H]2[C@@H]3[C@H](C)CC4=C(CCC(=O)C4)[C@H]3CC[C@@]21C` [Tibolone], the “LPS % cell toxicity” value in the data set on primary rat microglia [1] (setting [6]) was determined as 0%. For the same compound, the inhibition at 10 µM was -8% in data set [2] (setting [7]) and 4% in data set [4] (setting [9]). For the same compound, in data set [3] (setting [8]), the “Quadrant (FIG. 5b)” value is listed as “Q4”. The “Fibrin % cell toxicity” value with primary rat microglia [5] (setting [10]) was determined as 0%.
With `CC1(C)S[C@@H]2[C@H](NC(=O)[C@H](C(=O)O)c3ccsc3)C(=O)N2[C@H]1C(=O)O` [Ticarcillin Disodium], the “LPS % cell toxicity” value in the data set on primary rat microglia [1] (setting [6]) was found to be 0%. Besides, the inhibition at 10 µM in data set [2] (setting [7]) was -22%; in data set [4] (setting [9]), 7%. Moreover, the “Quadrant (FIG. 5b)” value in data set [3] (setting [8]) is “Q4”. The “Fibrin % cell toxicity” value in the data set on primary rat microglia [5] (setting [10]) was 0%.
As for `CN(C)c1cc(NC(=O)CNC(C)(C)C)c(O)c2c1C[C@H]1C[C@H]3[C@H](N(C)C)C(O)=C(C(N)=O)C(=O)[C@@]3(O)C(O)=C1C2=O` [Tigecycline], the “LPS % cell toxicity” value in the data set on primary rat microglia [1] (setting [6]) is recorded as 0%. The inhibition at 10 µM in data set [2] (setting [7]) was found to be 7%; in data set [4] (setting [9]) it was 13%. For the same compound, in data set [3] (setting [8]), the “Quadrant (FIG. 5b)” value was “Q4”. In the data set with primary rat microglia [5] (setting [10]), the “Fibrin % cell toxicity” value is 0%.
Regarding `CCN(CC)CCOc1ccc2c(c1)C(=O)c1cc(OCCN(CC)CC)ccc1-2` [Tilorone], the “LPS % cell toxicity” value in the data set with primary rat microglia [1] (LPS stimulation, decreased size (<150 μm^2) as marker of toxicity) worked out at 1%. The inhibition at 10 µM is -21% in data set [2] (fibrin stimulation, increased cell size (>800 μm^2) as marker of activation) and 60% in data set [4] (48 h, LPS stimulation, increased cell size (>800 μm^2) as marker of activation). In addition, the “Quadrant (FIG. 5b)” value in data set [3] (quadrant by fibrin and LPS inhibition in HTS of 1907 compounds) is recorded as “Q1”. Moreover, in the data set with primary rat microglia [5] (fibrin stimulation, decreased size (<150 μm^2) as marker of toxicity), the “Fibrin % cell toxicity” value is recorded as 0%.
As to `CC(C)(C)NC[C@H](O)COc1nsnc1N1CCOCC1` [Timolol Maleate], the “LPS % cell toxicity” value in the data set with primary rat microglia [1] (setting [6]) worked out at 0%. Further, the Fibrin % inhibition in data set [2] (setting [7]) is −4%. Further, the “Quadrant (FIG. 5b)” value in data set [3] (setting [8]) is listed as “Q4”. For the same compound, the LPS % inhibition in data set [4] (setting [9]) is 19%. Moreover, the “Fibrin % cell toxicity” value with primary rat microglia [5] (setting [10]) was 0%.
Take `CC(C)(C)NC[C@H](O)COc1nsnc1N1CCOCC1` [Timolol]: in the data set with primary rat microglia [1] (setting [6]), the “LPS % cell toxicity” value is on record as 0%. In addition, the Fibrin % inhibition in data set [2] (setting [7]) is reported as 11%. For the same compound, the “Quadrant (FIG. 5b)” value in data set [3] (setting [8]) was “Q4”. Moreover, the LPS % inhibition in data set [4] (setting [9]) is −7%. Besides, the “Fibrin % cell toxicity” value in the data set with primary rat microglia [5] (setting [10]) was 1%.
Consider `O=C(O)C1CSCN1` (stereo not shown) [Timonacic], for which the “LPS % cell toxicity” value in the data set with primary rat microglia [1] (setting [6]) came out at 0%. Moreover, the inhibition at 10 µM in data set [2] (setting [7]) was -38%; in data set [4] (setting [9]) it was 19%. Further, the “Quadrant (FIG. 5b)” value in data set [3] (setting [8]) is recorded as “Q4”. In the data set with primary rat microglia [5] (setting [10]), the “Fibrin % cell toxicity” value came out at 0%.
In the case of `CCS(=O)(=O)CCn1c([N+](=O)[O-])cnc1C` [Tinidazole], the “LPS % cell toxicity” value in the data set on primary rat microglia [1] (setting [6]) is on record as 1%. The inhibition at 10 µM in data set [2] (setting [7]) is 2%; in data set [4] (setting [9]), 14%. Further, in data set [3] (setting [8]), the “Quadrant (FIG. 5b)” value is “Q4”. In addition, the “Fibrin % cell toxicity” value in the data set with primary rat microglia [5] (setting [10]) is 0%.
For `CC(S)C(=O)NCC(=O)O` (stereo not shown) [Tiopronin] the same measures were 0%, -8%, 6%, “Q4” and 1%.
